Peptide text beside a SMILES is read from it.
Legend:
[1] = test system: collagen-induced arthritis (CIA) rats; test: Collagen-induced arthritis animal model; format: in vivo, Wistar rats
Excerpt: In order to determine whether or not the peptide according to the present invention is effective in treating rheumatoid arthritis in vivo, the effect of treating arthritis thereof was detected in a collagen-induced arthritis animal model. For this purpose, female Wistar rats (105-135 g, n=67) were purchased from Harlan Co. Ltd. (Indianapolis, IN, USA). All rats were bred in a pathogen-free environment and sterilized standard rat feed (Harlan Co. Ltd, USA) and water were freely fed to the rats. Animal experiments were conducted with the approval of the Institutional Animal Care and Use Committee (IACUC) of Seoul National University. Collagen-induced arthritis was induced in a known manner (Nishikawa et al., Arthritis and rheumatism. 2003; 48:2670-81).
Specifically, 500 μg of bovine collagen type II was injected along with a mixture of 0.5 mL of 0.1 M acetic acid and 0.5 mL of Freund's incomplete adjuvant into rat muscle. On the 7th day, 0.5 mL of 0.1 M acetic acid and 0.5 mL of Freund's incomplete adjuvant were further inoculated along with 250 μg of bovine collagen type II to produce collagen-induced arthritis (CIA) rats. The rats were classified into a CIA-induced group (n=10), a CIA-induced group injected with a low concentration of the peptide of SEQ ID NO: 1 (LD AIP, 15 mg/kg, n=10), a CIA-induced group injected with a high concentration of the peptide of SEQ ID NO: 1 (HD AIP, 30 mg/kg, n=10), a CIA-induced group injected with etanercept (Enbrel) (10 mg/kg, n=10), and a normal group (n=6). From 28 days after the first collagen injection, the peptide of SEQ ID NO: 1 was injected subcutaneously into the back of the neck twice a week over 4 weeks. Etanercept was injected intraperitoneally three times a week over 4 weeks. Swelling of both hind paws was measured twice using a plethysmometer (LE7500 N, IWOO Scientific Corporation, KOREA) on day 22, 29, 31, 35, 38, 42, 45, 49, 52, and 56. The plethysmometer was used after calibration to a weight of 3 mL. The measured area was marked by drawing a line, and measurement was conducted adjacent to the ankle. Hind paw swelling increase (%) and hind paw swelling inhibition (%) were calculated using the following equations.
In order to observe the degree of bone damage in the hind paw, microcomputed tomography (micro-CT) was performed using a SkyScan 1172 (SkyScan, Aartselaar, Belgium). The total volume (TV; mm^3), bone volume (BV; mm^3) and bone volume fraction (BV/TV; %) were analyzed using CTAn software. On the 57th day, rats were sacrificed and subjected to histological analysis. Both hind paws and joints were collected, fixed in 10% buffered formalin, and demineralized in 30% citrate-buffered formic acid at 4° ° C. for 3 days. Paraffin blocks were produced, sliced into sections with a thickness of 4 μm and stained with hematoxylin and eosin (H&E), and then the pathological score was evaluated with an optical microscope. The joint inflammation index was measured based on the following criteria (Shiozawa et al., J Clin Invest. 1997; 99 (6):1210-1216). 0, normal synovium; 1, synovial membrane hypertrophy and cell infiltrates; 2, pannus and cartilage erosion; 3, major erosion of cartilage and subchondral bone; and 4, loss of joint integrity and ankylosis.
The rats were sacrificed and systemic blood was collected, and the concentrations of TNF-α and IL-6 in the blood were measured with an ELISA kit (R&D, Minneapolis, MN, USA).

HDAC5 protein = target: T1, HDAC5 protein (Homo sapiens, UniProt Q9UQL6); test: Biacore T200 binding affinity to immobilised HDAC5 protein; details: CM5 chip, 1:1 binding model; for kon: read-out: ka
T1 construct: purchased Abcam
T1 sequence (Q9UQL6 whole entry, species assumed): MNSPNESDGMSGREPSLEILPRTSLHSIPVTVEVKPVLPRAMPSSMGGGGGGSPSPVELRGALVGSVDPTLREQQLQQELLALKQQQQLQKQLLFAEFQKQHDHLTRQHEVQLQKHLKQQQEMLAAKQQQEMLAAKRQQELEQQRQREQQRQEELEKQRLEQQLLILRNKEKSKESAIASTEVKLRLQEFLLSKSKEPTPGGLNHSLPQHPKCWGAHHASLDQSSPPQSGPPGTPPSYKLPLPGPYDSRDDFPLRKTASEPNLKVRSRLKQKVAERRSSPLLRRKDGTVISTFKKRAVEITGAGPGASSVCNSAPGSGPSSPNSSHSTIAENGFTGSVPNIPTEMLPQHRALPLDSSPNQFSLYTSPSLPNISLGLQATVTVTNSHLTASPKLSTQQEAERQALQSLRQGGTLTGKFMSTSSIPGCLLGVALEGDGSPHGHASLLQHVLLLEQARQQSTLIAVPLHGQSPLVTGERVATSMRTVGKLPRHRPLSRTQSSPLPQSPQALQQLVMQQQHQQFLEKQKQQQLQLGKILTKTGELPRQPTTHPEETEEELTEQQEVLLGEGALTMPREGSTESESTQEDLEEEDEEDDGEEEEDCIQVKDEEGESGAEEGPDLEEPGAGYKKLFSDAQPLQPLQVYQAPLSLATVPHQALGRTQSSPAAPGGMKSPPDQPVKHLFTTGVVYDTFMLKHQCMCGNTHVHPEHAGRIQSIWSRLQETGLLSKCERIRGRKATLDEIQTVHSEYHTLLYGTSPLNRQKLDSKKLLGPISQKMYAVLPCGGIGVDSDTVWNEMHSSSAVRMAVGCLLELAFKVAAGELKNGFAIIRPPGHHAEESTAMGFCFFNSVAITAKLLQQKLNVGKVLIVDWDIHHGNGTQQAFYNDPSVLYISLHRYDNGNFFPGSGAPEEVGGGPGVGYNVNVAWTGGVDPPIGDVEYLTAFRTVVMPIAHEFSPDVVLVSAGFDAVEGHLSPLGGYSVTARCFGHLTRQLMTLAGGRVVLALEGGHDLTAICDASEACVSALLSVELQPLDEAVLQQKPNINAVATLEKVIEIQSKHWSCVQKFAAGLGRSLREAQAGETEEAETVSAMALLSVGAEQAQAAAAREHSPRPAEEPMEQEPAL
Method: For this purpose, HDAC5 protein (Abcam, MA, USA) was dissolved in sodium acetate buffer (pH 4.5), and was bound to a dextran-covered sensor chip surface (CM5 chip) using N-hydroxysuccinimide (NHS) and N-ethyl-N0-(3-dimethylaminopropyl)-carbodiimide hydrochloride (EDAC) as crosslinkers. The unreacted active group of dextran was blocked by the addition of ethanolamine (1M) thereto. The number of HDAC5 binding to the chip was measured as 4440RU (1000 RU=1 ng/mm^2). […] Rate constants for association (ka) and dissociation (kd), and a dissociation constant (KD) were calculated using BIAevaluation software and a 1:1 binding model.

For etanercept [reference compound], the “Concentration of IL-6 in blood” value ([1]; ELISA, high concentration of peptide or etanercept, CIA-induced group 109 pg/ml) was 24 pg/mL, the “Concentration of TNF-α in blood” value ([1]; ELISA, high concentration of peptide or etanercept, CIA-induced group 128 pg/ml) was 39 pg/mL and the “Microscopic observation of joint tissues (inflammation, H&E)” value ([1]; FIG. 4A) was “results similar to the CIA-induced group injected with a low concentration of SEQ ID NO: 1”. The “Hind paw swelling inhibition (%)” value ([1]; etanercept 10 mg/kg intraperitoneally) was 37%, the “Hind paw swelling (%)” value ([1]; peptide 15 or 30 mg/kg subcutaneously twice a week, etanercept 10 mg/kg intraperitoneally three times a week, 4 weeks) was “decreased hind paw swelling (%) within 35 to 56 days (P<0.05)” and the Inflammation index ([1]; score 0-4, CIA-induced group 3.3±0.67) was 2.3±1.16.

For CSCC[C@H](NC(=O)[C@H](CCCCN)NC(=O)[C@H](CCCNC(=N)N)NC(=O)CNC(=O)[C@H](CCCNC(=N)N)NC(=O)[C@@H](NC(=O)[C@H](CO)NC(=O)[C@H](CS)NC(=O)[C@H](CCCCN)NC(=O)CN)[C@@H](C)O)C(=O)N[C@@H](CCSC)C(=O)N[C@@H](CCCNC(=N)N)C(=O)N[C@@H](CCCNC(=N)N)C(=O)N[C@@H](CCCCN)C(=O)N[C@@H](CCCCN)C(=O)O [SEQ ID NO: 4] (H-GKCSTRGRKMMRRKK-OH; N-terminus and C-terminus assumed), the Kd (HDAC5 protein) was 940 nM, the kd (HDAC5 protein) was 0.06788 s⁻¹ and the kon (HDAC5 protein) was 72200 M⁻¹ s⁻¹.

CSCC[C@H](NC(=O)[C@H](CCCCN)NC(=O)CN)C(=O)N[C@@H](CO)C(=O)N[C@H](C(=O)N[C@@H](CCCNC(=N)N)C(=O)NCC(=O)N[C@@H](CCCNC(=N)N)C(=O)N[C@@H](CCCCN)C(=O)N[C@@H](CCSC)C(=O)N[C@@H](CCSC)C(=O)N[C@@H](CCCNC(=N)N)C(=O)N[C@@H](CCCNC(=N)N)C(=O)N[C@@H](CCCCN)C(=O)N[C@@H](CCCCN)C(=O)O)[C@@H](C)O [SEQ ID NO: 8] (H-GKMSTRGRKMMRRKK-OH; N-terminus and C-terminus assumed) was tested, and the Kd (HDAC5 protein) was 86.8 nM, the kd (HDAC5 protein) was 0.004776 s⁻¹ and the kon (HDAC5 protein) was 55000 M⁻¹ s⁻¹.

In the case of CSCC[C@H](NC(=O)[C@H](CCCCN)NC(=O)CN)C(=O)N[C@@H](CO)C(=O)N[C@H](C(=O)N[C@@H](CCCNC(=N)N)C(=O)NCC(=O)N[C@@H](CCCNC(=N)N)C(=O)N[C@@H](CCCCN)C(=O)N[C@@H](CS)C(=O)N[C@@H](CCSC)C(=O)N[C@@H](CCCNC(=N)N)C(=O)N[C@@H](CCCNC(=N)N)C(=O)N[C@@H](CCCCN)C(=O)N[C@@H](CCCCN)C(=O)O)[C@@H](C)O [SEQ ID NO: 7] (H-GKMSTRGRKCMRRKK-OH; N-terminus and C-terminus assumed), the Kd (HDAC5 protein) is reported as 704 nM, the kd (HDAC5 protein) is reported as 0.04757 s⁻¹ and the kon (HDAC5 protein) is reported as 67500 M⁻¹ s⁻¹.

CSCC[C@H](NC(=O)[C@H](CCCCN)NC(=O)CN)C(=O)N[C@@H](CO)C(=O)N[C@H](C(=O)N[C@@H](CCCNC(=N)N)C(=O)NCC(=O)N[C@@H](CCCNC(=N)N)C(=O)N[C@@H](CCCCN)C(=O)N[C@@H](CS)C(=O)N[C@@H](CS)C(=O)N[C@@H](CCCNC(=N)N)C(=O)N[C@@H](CCCNC(=N)N)C(=O)N[C@@H](CCCCN)C(=O)N[C@@H](CCCCN)C(=O)O)[C@@H](C)O [SEQ ID NO: 5] (H-GKMSTRGRKCCRRKK-OH; N-terminus and C-terminus assumed) gave a kd (HDAC5 protein) of 0.03088 s⁻¹ and a kon (HDAC5 protein) of 65900 M⁻¹ s⁻¹.

With CSCC[C@H](NC(=O)[C@H](CCCCN)NC(=O)[C@H](CCCNC(=N)N)NC(=O)CNC(=O)[C@H](CCCNC(=N)N)NC(=O)[C@@H](NC(=O)[C@H](CO)NC(=O)[C@H](CS)NC(=O)[C@H](CCCCN)NC(=O)CN)[C@@H](C)O)C(=O)N[C@@H](CS)C(=O)N[C@@H](CCCNC(=N)N)C(=O)N[C@@H](CCCNC(=N)N)C(=O)N[C@@H](CCCCN)C(=O)N[C@@H](CCCCN)C(=O)O [SEQ ID NO: 3] (H-GKCSTRGRKMCRRKK-OH; N-terminus and C-terminus assumed) the kd (HDAC5 protein) was 0.05953 s⁻¹ and the kon (HDAC5 protein) was 82100 M⁻¹ s⁻¹.

CSCC[C@H](NC(=O)[C@H](CCCCN)NC(=O)CN)C(=O)N[C@@H](CO)C(=O)N[C@H](C(=O)N[C@@H](CCCNC(=N)N)C(=O)NCC(=O)N[C@@H](CCCNC(=N)N)C(=O)N[C@@H](CCCCN)C(=O)N[C@@H](CCSC)C(=O)N[C@@H](CS)C(=O)N[C@@H](CCCNC(=N)N)C(=O)N[C@@H](CCCNC(=N)N)C(=O)N[C@@H](CCCCN)C(=O)N[C@@H](CCCCN)C(=O)O)[C@@H](C)O [SEQ ID NO: 6] (H-GKMSTRGRKMCRRKK-OH; N-terminus and C-terminus assumed) was tested, and the Kd (HDAC5 protein) was 444 nM, the kd (HDAC5 protein) was 0.04463 s⁻¹ and the kon (HDAC5 protein) was 100000 M⁻¹ s⁻¹.

CSCC[C@H](NC(=O)[C@H](CS)NC(=O)[C@H](CCCCN)NC(=O)[C@H](CCCNC(=N)N)NC(=O)CNC(=O)[C@H](CCCNC(=N)N)NC(=O)[C@@H](NC(=O)[C@H](CO)NC(=O)[C@H](CS)NC(=O)[C@H](CCCCN)NC(=O)CN)[C@@H](C)O)C(=O)N[C@@H](CCCNC(=N)N)C(=O)N[C@@H](CCCNC(=N)N)C(=O)N[C@@H](CCCCN)C(=O)N[C@@H](CCCCN)C(=O)O [SEQ ID NO: 2] (H-GKCSTRGRKCMRRKK-OH; N-terminus and C-terminus assumed) gave a kd (HDAC5 protein) of 0.06872 s⁻¹ and a kon (HDAC5 protein) of 74400 M⁻¹ s⁻¹.

Source: patent publication US12486303B2, “Use of peptide for inhibiting functions and expressions of multiple disease biomarkers” (NIBEC CO., LTD., priority 2018, dated 2025)
